# Source: patent US8765755B2, “N-containing heterocyclic compounds” (YM Biosciences Australia Pty Ltd, priority 2007, dated 2014)
# Columns and labels:
# [1] = molecular target: T1, human JAK3 (Homo sapiens, UniProt P52333); experiment: JAK3 kinase enzyme assay (Alphascreen); assay type: biochemical; settings: 80 or 625 um ATP
# T1 construct: The kinase domain of human JAK3 was amplified; GST (N); made in house; host or cells: Sf9 (Spodoptera frugiperda) insect cells, baculovirus
# Procedure: (§1) For screening purposes, compounds (in 100% DMSO) were warmed at 37 degrees for at least 20 minutes before use. A […] stock was initially made in assay buffer, where the final concentration of DMSO was 0.3%. The stocks were then diluted in 384 well Optiplates (Packard) where the final concentration of the compound was 5 μM.
# The kinase domain of human JAK3 was amplified from U937mRNA using the polymerase chain reaction with the following primers: […]
# The JAK3 PCR products were cloned into the pDest20 destination expression vector (Gibco). The JAK3 plasmid was then transformed into competent DH10Bac cells (Gibco), and the recombinant baculovirus was prepared via Sf9 insect cell transfection.
# (§2) Baculovirus preparations from each of the JAK family members were infected into one litre of Sf9 (Spodoptera frugiperda) cells (Invitrogen) grown in SF900II serum free medium (Invitrogen) to a cell density of approximately 2×10^6 cells/ml. Cells were infected with virus at a cell culture to virus stock ratio of 20:1. Cells were harvested and lysed 48 hours post infection. The GST-tagged JAK kinase domains were purified by affinity chromatography on a GSH agarose column (Scientifix).
# (§3) Kinase assays were performed in 384 well Optiplates (Packard) using an Alphascreen Protein Tyrosine KinaseP100 detection kit The compounds were pre-incubated with affinity purified PTK domain in the presence of phosphotyrosine assay buffer (10 mM HEPES, pH 7.5, 100 mM MgCl2, 25 mM NaCl, 200 mM sodium vanadate and 0.1% Tween 20) for 20 minutes. The compounds were then incubated with substrate in the presence of either 80 or 625 um ATP for 60 or 90 minutes. The substrate used was either susbtrate-1 with the sequence biotin-EGPWLEEEEEAYGWMDF-NH2 [SEQ. ID. NO. 13] (final concentration 111 μM) or susbtrate-2 substrate with the sequence biotin-EQEDEPEGDYFEWLEPE (final concentration 133 μM). Alphascreen phosphotyrosine acceptor beads followed by streptavidin donor beads at a concentration of 1/100 in stop buffer were added to each well under subdued light and incubated for 2-3 hours. The Alphascreen plates were read on a Packard Fusion Alpha instrument.
# [2] = test system: BafT_J3; experiment: Cellular screening, BaF3 TEL:JAK3 cells (Alamar Blue); assay type: cell-based; settings: Mus musculus, 40 hr incubation
# Procedure: (§4) For screening purposes, compounds were diluted in 96 well plates at a concentration of 20 μM. Plates were warmed at 37° C. for 30 minutes before the assay was performed.
# (§5) The coding region encompassing nucleotides 1-487 of TEL was amplified by PCR using the oligonucleotides 5TEL (5′-GGAGGATCCTGATCTCTCTCGCTGTGAGAC-3′) [SEQ ID NO 14] and 3TEL (5′-AGGC GTCGACTTCTTCTTCATGGTTCTG-3′) [SEQ ID NO 15] and U937 mRNA as a template. A BamHI restriction site was incorporated into the 5TEL primer, and a Sal I restriction site was incorporated into the 3TEL primer. The regions encompassing the kinase domain of JAK2 (nucleotides 2994-3914; JAK2F 5′-ACGC GTCGACGGTGCCTTTGAAGACCGGGAT-3′ [SEQ ID NO 16]; JAK2R 5′-ATAGTTTAGCGGCCGCTCAGAATGAAGGTCATTT-3′) [SEQ ID NO 17] and JAK3 (nucleotides 2520-3469; JAK3F 5′-GAAGTCGACTATGCCTGCCAAGACCCCACGATCTT-3′) [SEQ ID NO 18] were generated by PCR using Taq DNA polymerase (Gibco/BRL) and U937 mRNA as a template. A Sal I restriction site was incorporated into the forward primer of JAK2 and JAK3, a Not I site was incorporated into the JAK2 reverse primer and a Xba I site was added to the reverse primer of JAK3.
# The TEL/Jak3 fusion was prepared by ligation of the JAK3 Sal I/Not I cleaved kinase domain PCR product with the BamH I/Sal I restriction digested TEL product, followed by ligation of the ligation product into the BamH I/Not I digested pTRE2, to give the TEL/Jak3 fusion plasmid pTELJAK3.
# (§6) The growth factor dependant myelomonocytic cell line BaF3 bearing the pTET-off plasmid (Clontech) was transfected with either pTELJAK2 or pTELJAK3, and the transfected cells were selected for growth-factor independent cell growth. The BaF3 wild-type cells were cultured in DMEM containing 10% FCS, 10% WEHI 3B conditioned medium. The BaF3 TELJAK cells ([…]) were cultured in DMEM 10% Tet-System Approved FBS (without WEHI 3B conditioned medium).
# (§7) Cell suspensions were prepared by harvesting cells from culture. (the cells used in this test were in late log phase growth with high viability.) Cells were diluted in the appropriate growth medium, as described above, to 1.1× final concentration (from 50,000 cell/mL to 200,000 cell/mL, depending on cell line).
# (§8) Compounds to be tested were added (10 μL, 10× final concentration) to a flat bottomed 96-well plate. The cellular suspension (90 μL per well) was then added, and the plate incubated for 40 hr at 37° C., 5% CO2. Alamar Blue 10 μL per well was added and the plates returned to the incubator for a further 4-6 hours. The plates were then read at 544 nm.
# [3] = test system: CTLL2; experiment: Cellular screening, CTLL2 cells (Alamar Blue); assay type: cell-based; settings: Mus musculus, CTLL-2, 40 hr incubation
# Procedure: as §4, §7, §8
# [4] = test system: BAF3wt; experiment: Cellular screening, BaF3 wild-type cells (Alamar Blue); assay type: cell-based; settings: Mus musculus, 40 hr incubation
# Procedure: as §4, §6, §7, §8
# [5] = test system: BafT_J2; experiment: Cellular screening, BaF3 TEL:JAK2 cells (Alamar Blue); assay type: cell-based; settings: Mus musculus, 40 hr incubation
# Procedure: as §4, §5
# A TEL/Jak2 fusion was generated by digestion of the TELPCR product with BamH I/Sal I restriction enzymes, digestion of the JAK2 PCR product with Sal I/Not I restriction enzymes, followed by ligation and subcloning of the ligation product into the mammalian expression Vector pTRE 2 (Clontech), which was prepared by digestion with BamH I-Not I restriction enzymes, to give the TEL/Jak2 fusion plasmid pTELJAK2.
# as §6, §7, §8
# [6] = molecular target: T2, human JAK2 (Homo sapiens, UniProt O60674); experiment: JAK2 kinase enzyme assay (Alphascreen); assay type: biochemical; settings: 80 or 625 um ATP
# T2 construct: The kinase domain of human JAK2 was amplified; GST (N); made in house; host or cells: Sf9 (Spodoptera frugiperda) insect cells, baculovirus
# Procedure: as §1
# The kinase domain of human JAK2 was amplified from U937mRNA using the polymerase chain reaction with the following primers: […]
# The JAK2 PCR products were cloned into the pDest20 destination vector (Gibco). The JAK2 plasmid was then transformed into competent DH10Bac cells (Gibco), and the recombinant baculovirus was prepared via Sf9 insect cell transfection.
# as §2, §3
# T1 sequence (P52333 822-1111 limits assumed): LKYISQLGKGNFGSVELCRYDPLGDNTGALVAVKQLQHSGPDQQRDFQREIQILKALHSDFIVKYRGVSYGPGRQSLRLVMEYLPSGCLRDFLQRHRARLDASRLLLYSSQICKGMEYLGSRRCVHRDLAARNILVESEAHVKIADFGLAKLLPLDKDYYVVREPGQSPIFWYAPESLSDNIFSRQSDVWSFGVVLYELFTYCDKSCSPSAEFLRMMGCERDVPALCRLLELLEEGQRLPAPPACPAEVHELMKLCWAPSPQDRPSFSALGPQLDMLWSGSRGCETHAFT
# T2 sequence (O60674 849-1124 limits assumed): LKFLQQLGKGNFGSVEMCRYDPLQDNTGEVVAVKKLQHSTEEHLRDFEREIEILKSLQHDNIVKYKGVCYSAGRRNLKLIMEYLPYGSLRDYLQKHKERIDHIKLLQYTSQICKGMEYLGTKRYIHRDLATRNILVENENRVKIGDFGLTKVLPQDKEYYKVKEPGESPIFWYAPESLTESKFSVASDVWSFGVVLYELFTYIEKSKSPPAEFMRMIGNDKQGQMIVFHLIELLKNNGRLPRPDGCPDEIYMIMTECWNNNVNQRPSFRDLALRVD
Compound,IC50 [1] [nM],IC50 [2] [nM],IC50 [3] [nM],IC50 [4] [nM],IC50 [5] [nM],IC50 [6] [nM]
"COc1cc(-c2csc3cnc(Nc4ccc(N5CCOCC5)cc4)nc23)ccc1N [Compound 10, 7-(4-amino-3-methoxyphenyl)-N-(4-morpholinophenyl)thieno[3,2-d]pyrimidin-2-amine]",< 100,< 1000,< 1000,< 1000,< 1000,< 100
"COc1cc(-c2csc3cnc(Nc4ccc(CN5CCOCC5)cc4)nc23)ccc1NC(C)=O [Compound 85, N-(2-methoxy-4-(2-(4-(morpholinomethyl)phenylamino)thieno[3,2-d]pyrimidin-7-yl)phenyl)acetamide]",< 100,< 1000,< 1000,< 1000,< 1000,< 100
"C=CC(=O)Nc1ccc(-c2csc3cnc(Nc4ccc(N5CCOCC5)cc4)nc23)cc1 [Compound 3, N-(4-(2-(4-morpholinophenylamino)thieno[3,2-d]pyrimidin-7-yl)phenyl)acrylamide]",< 100,< 1000,< 1000,< 5000,< 5000,< 100
"CC(=O)Nc1cccc(-c2csc3cnc(Nc4ccc(CN5CCOCC5)cc4)nc23)c1 [Compound 81, N-(3-(2-(4-(morpholinomethyl)phenylamino)thieno[3,2-d]pyrimidin-7-yl)phenyl)acetamide]",< 500,< 1000,< 1000,< 1000,< 1000,< 100
"CC(C)c1ccccc1-c1csc2cnc(Nc3ccc(N4CCOCC4)cc3)nc12 [Compound 37, 7-(2-isopropylphenyl)-N-(4-morpholinophenyl)thieno[3,2-d]pyrimidin-2-amine]",< 100,< 1000,< 1000,< 1000,< 1000,< 100
"CCc1ccccc1-c1csc2cnc(Nc3cccc(N)c3)nc12 [Compound 22, N1-(7-(2-ethylphenyl)thieno[3,2-d]pyrimidin-2-yl)benzene-1,3-diamine]",< 100,< 5000,< 1000,< 5000,< 1000,< 100
"CS(=O)(=O)N(CC#N)c1ccc(-c2csc3cnc(Nc4ccc(N5CCOCC5)cc4)nc23)cc1 [Compound 32, N-(cyanomethyl)-N-(4-(2-(4-morpholinophenylamino)thieno[3,2-d]pyrimidin-7-yl)phenyl)methanesulfonamide]",< 100,< 1000,< 1000,< 5000,< 1000,< 100
"CC(C)(C)NS(=O)(=O)c1cccc(-c2csc3cnc(Nc4ccc(OCCN5CCCC5)cc4)nc23)c1 [Compound 71, N-tert-butyl-3-(2-(4-(2-(pyrrolidin-1-yl)ethoxy)phenylamino)thieno[3,2-d]pyrimidin-7-yl)benzenesulfonamide]",< 100,< 1000,< 5000,< 5000,< 1000,< 100
CC(C)(C)OC(=O)NCc1cccc(-c2csc3cnc(Nc4ccc(OCCN5CCCC5)cc4)nc23)c1 [Compound 72],< 100,< 1000,< 1000,< 5000,< 1000,< 100
"N#CCNC(=O)c1cccc(-c2csc3cnc(Nc4ccc(CN5CCOCC5)cc4)nc23)c1 [Compound 70, N-(cyanomethyl)-3-(2-(4-(morpholinomethyl)phenylamino)thieno[3,2-d]pyrimidin-7-yl)benzamide]",< 100,< 1000,< 5000,< 1000,< 1000,< 100
"Cn1cc(-c2ccc(NS(C)(=O)=O)cc2)c2nc(Nc3ccc(N4CCOCC4)cc3)ncc21 [Compound 35, N-(4-(5-methyl-2-(4-morpholinophenylamino)-5H-pyrrolo[3,2-d]pyrimidin-7-yl)phenyl)methanesulfonamide]",< 1000,< 20000,< 5000,< 5000,< 5000,< 100
CC(C)(C)OC(=O)NCc1cccc(-c2csc3cnc(Nc4ccc(CN5CCOCC5)cc4)nc23)c1 [Compound 92],< 500,< 5000,< 1000,< 1000,< 5000,< 100
"CCN1CCC(Oc2ccc(Nc3ncc4scc(-c5cn[nH]c5)c4n3)cc2)CC1 [Compound 98, N-(4-(1-ethylpiperidin-4-yloxy)phenyl)-7-(1H-pyrazol-4-yl)thieno[3,2-d]pyrimidin-2-amine]",< 100,< 1000,< 1000,< 1000,< 1000,< 100
"N#CCNC(=O)c1cccc(-c2csc3cnc(Nc4ccc(N5CCOCC5)cc4)nc23)c1 [Compound 63, N-(cyanomethyl)-3-(2-(4-morpholinophenylamino)thieno[3,2-d]pyrimidin-7-yl)benzamide]",< 100,< 1000,< 1000,< 1000,< 1000,< 100
"c1cc(Nc2ncc3scc(-c4ccc5c(c4)OCO5)c3n2)ccc1CN1CCOCC1 [Compound 76, 7-(benzo[d][1,3]dioxol-5-yl)-N-(4-(morpholinomethyl)phenyl)thieno[3,2-d]pyrimidin-2-amine]",< 500,< 1000,< 1000,< 1000,< 1000,< 100
